Read-outs that look alike come from different tables or passages of the source.
Experiments:
[1] = Krafft temperature (TK); assay type: physicochemical
Procedure: CHNS elemental analysis was carried out by a Vario EL cube (Elementar, Germany) calibrated on acetanilide. Electrospray ionization mass spectroscopy (ESI-MS) (micrOTOF-Q instrument; Bruker Daltonics, Germany) allowed for the MS spectra to be obtained. The ESI-MS instrument was operated in the positive ion mode and calibrated with the Tunemix^TM mixture (Bruker Daltonics, Germany). The mass accuracy was better than 5 ppm. The obtained mass spectra were analyzed using DataAnalysis 3.4 software (Bruker Daltonics, Germany). ^1H NMR spectra were recorded on a Bruker AMX-500 spectrometer, using CDCl3 as a solvent. ^1H chemical shifts (in ppm) were calibrated to TMS as an internal reference. Melting points were determined using a Boetius melting point apparatus, while Krafft temperatures were determined according to the directions given in [47]. CMC is the minimum concentration above which micelles are formed in aqueous liquid. To obtain the CMC values, we used McGowan’s model. […] Molecular characteristic volumes (Vx) are found by the addition of the atomic characteristic volumes and the subtraction for the same factory (6.56 × 10^−6 m^3 mol^−1) for every covalent bond.

[2] = system: C. glabrata ATCC 90030; experiment: Interaction of AABs (3 µM) with antifungal agents, modified checkerboard; assay type: cell-based, Candida glabrata
[3] = system: C. glabrata 2586; experiment: as above; assay type: cell-based, Candida glabrata
[4] = system: C. glabrata DSM 1226; set-up: method as in PMID 37508306; settings: ref [12]; cited from earlier work
[5] = system: C. glabrata clinical isolate C8 (C18); set-up: method as in PMID 37508306; settings: ref [12]; cited from earlier work
[6] = system: C. glabrata clinical isolate C27; set-up: method as in PMID 37508306; settings: ref [12]; cited from earlier work
[7] = system: C. glabrata cells; set-up: method as in PMID 37508306; settings: ref [12], cited from earlier work
[8] = system: ERG11 and ALS3; set-up: method as in PMID 37508306; settings: qRT-PCR; ref [12]; cited from earlier work
[9] = C9 at constant 3 µM, dilutions in µg/mL
[10] = C11 at constant 3 µM, dilutions in µg/mL
[11] = C13 at constant 3 µM, dilutions in µg/mL
[12] = C15 at constant 3 µM, dilutions in µg/mL

CCCCCCCCCC(=O)N(C)CCC[N+](C)(C)CC(=O)[O-] [C9]
TK (Krafft temperature) [1]: <0 °C

β-aescin
Multiplicity factor (MF) with C9 ([2]; C9 3 µM, |MF| = MIC90 alone/MIC90 with AAB): 1 | MIC90 of antimycotic combined with C9 [2, 9]: 128 | Multiplicity factor (MF) with C11 ([2]; C11 3 µM): 1 | MIC90 of antimycotic combined with C11 [2, 10]: 128 | Multiplicity factor (MF) with C13 ([2]; C13 3 µM): 1 | MIC90 of antimycotic combined with C13 [2, 11]: 128 | Multiplicity factor (MF) with C15 ([2]; C15 3 µM): 1 | MIC90 of antimycotic combined with C15 [2, 12]: 128 | Multiplicity factor (MF) with C9 ([3]; C9 3 µM): 2 | MIC90 of antimycotic combined with C9 [3, 9]: 128 | Multiplicity factor (MF) with C11 ([3]; C11 3 µM): 2 | MIC90 of antimycotic combined with C11 [3, 10]: 128 | Multiplicity factor (MF) with C13 ([3]; C13 3 µM): 2 | MIC90 of antimycotic combined with C13 [3, 11]: 128 | Multiplicity factor (MF) with C15 ([3]; C15 3 µM): 2 | MIC90 of antimycotic combined with C15 [3, 12]: 128 | MFC [4]: 160 µg/mL | MIC [4]: 80 µg/mL | MFC [5]: 100 µg/mL | MIC [5]: 40 µg/mL | MFC [6]: 100 µg/mL | MIC [6]: 50 µg/mL | Increase versus control (FACS, membrane integrity) ([7]; 1 × MIC): about 7.4% | Increase versus control (FACS, membrane integrity) ([7]; 2 × MIC): ~22% | Expression of ERG11 and ALS3 [8]: downregulation
